Assay results taken from ChEMBL document CHEMBL1201862, “PubChem BioAssay data set” (2004).
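Cultured in 96-well plates, cells were exposed to test compound for 48 hours across five concentrations. The concentration for 50% growth inhibition is given as GI50.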 Activity calls are given as the source filed them. Cut-off read from the data, not from the text of the source: active = GI50 up to about 1.1 µM and inactive = higher.

Experiments:
Experiment in all cases: NCI tumour cell line growth inhibition, 48 h
786-0 = test system: 786-0
A549 = test system: A549
CAKI-1 = test system: CAKI-1
CCRF-CEM = test system: CCRF-CEM
COLO 205 = test system: COLO 205
DU-145 = test system: DU-145
EKVX = test system: EKVX
HCC 2998 = test system: HCC 2998
HCT-15 = test system: HCT-15
HL-60 = test system: HL-60
HOP-62 = test system: HOP-62
HT-29 = test system: HT-29
IGROV-1 = test system: IGROV-1
K562 = test system: K562
KM12 = test system: KM12
LOX IMVI = test system: LOX IMVI
M14 = test system: M14
MCF7 = test system: MCF7
MDA-MB-231 = test system: MDA-MB-231
MDA-N = test system: MDA-N
Malme-3M = test system: Malme-3M
NCI-H23 = test system: NCI-H23
OVCAR-8 = test system: OVCAR-8
PC-3 = test system: PC-3
RPMI-8226 = test system: RPMI-8226
RXF 393 = test system: RXF 393
SF-268 = test system: SF-268
SF-295 = test system: SF-295
SK-MEL-28 = test system: SK-MEL-28
SK-MEL-5 = test system: SK-MEL-5
SK-OV-3 = test system: SK-OV-3
SN12C = test system: SN12C
SNB-75 = test system: SNB-75
SR = test system: SR
SW-620 = test system: SW-620
T47D = test system: T47D
TK-10 = test system: TK-10
UACC-257 = test system: UACC-257
UACC-62 = test system: UACC-62
ACHN = test system: ACHN
HCT-116 = test system: HCT-116
Hs-578T = test system: Hs-578T
MDA-MB-435 = test system: MDA-MB-435
MOLT-4 = test system: MOLT-4
NCI-H226 = test system: NCI-H226
NCI-H460 = test system: NCI-H460
NCI-H522 = test system: NCI-H522
NCI/ADR-RES = test system: NCI/ADR-RES
OVCAR-3 = test system: OVCAR-3
OVCAR-4 = test system: OVCAR-4
OVCAR-5 = test system: OVCAR-5
SF-539 = test system: SF-539
SK-MEL-2 = test system: SK-MEL-2
SNB-19 = test system: SNB-19
U-251 = test system: U-251
UO-31 = test system: UO-31
A498 = test system: A498

COc1ccc(C(=O)/C=C/c2ccc(OCC(=N)N)cc2)cc1OC
GI50 (786-0): 5.04 µM (inactive) | GI50 (A549): 5.97 µM (inactive) | GI50 (CAKI-1): 5.05 µM (inactive) | GI50 (CCRF-CEM): 2.61 µM (inactive) | GI50 (COLO 205): 3.34 µM (inactive) | GI50 (DU-145): > 10 µM (inactive) | GI50 (EKVX): 7.36 µM (inactive) | GI50 (HCC 2998): 6.4 µM (inactive) | GI50 (HCT-15): > 10 µM | GI50 (HL-60): 1.95 µM (inactive) | GI50 (HOP-62): 5.75 µM (inactive) | GI50 (HT-29): 3.1 µM (inactive) | GI50 (IGROV-1): > 10 µM (inactive) | GI50 (K562): 2.37 µM (inactive) | GI50 (KM12): 2.64 µM (inactive) | GI50 (LOX IMVI): 2.52 µM (inactive) | GI50 (M14): 5.87 µM (inactive) | GI50 (MCF7): 3.24 µM (inactive) | GI50 (MDA-MB-231): > 10 µM (inactive) | GI50 (MDA-N): 3.6 µM (inactive) | GI50 (Malme-3M): > 10 µM (inactive) | GI50 (NCI-H23): 3.33 µM (inactive) | GI50 (OVCAR-8): 3.62 µM (inactive) | GI50 (PC-3): 3.84 µM (inactive) | GI50 (RPMI-8226): 2.34 µM (inactive) | GI50 (RXF 393): 4.63 µM (inactive) | GI50 (SF-268): 3.61 µM (inactive) | GI50 (SF-295): > 10 µM (inactive) | GI50 (SK-MEL-28): 8.73 µM (inactive) | GI50 (SK-MEL-5): 7.93 µM (inactive) | GI50 (SK-OV-3): 4.01 µM (inactive) | GI50 (SN12C): > 10 µM (inactive) | GI50 (SNB-75): 4.53 µM (inactive) | GI50 (SR): 1.64 µM (inactive) | GI50 (SW-620): 3.84 µM (inactive) | GI50 (T47D): 3.86 µM (inactive) | GI50 (TK-10): > 10 µM (inactive) | GI50 (UACC-257): 6.79 µM (inactive) | GI50 (UACC-62): > 10 µM (inactive)

O=C(Nc1ccccc1)c1nn(-c2cc(S(=O)(=O)O)c([N+](=O)[O-])cc2Cl)[n+](-c2cc(S(=O)(=O)[O-])c([N+](=O)[O-])cc2Cl)n1
GI50 (786-0): > 100 µM (inactive) | GI50 (A549): > 100 µM (inactive) | GI50 (ACHN): > 100 µM (inactive) | GI50 (CAKI-1): > 100 µM (inactive) | GI50 (CCRF-CEM): > 100 µM (inactive) | GI50 (COLO 205): > 100 µM (inactive) | GI50 (DU-145): > 100 µM (inactive) | GI50 (EKVX): > 100 µM (inactive) | GI50 (HCC 2998): > 100 µM (inactive) | GI50 (HCT-116): > 100 µM (inactive) | GI50 (HCT-15): > 100 µM | GI50 (HL-60): 40.8 µM (inactive) | GI50 (HOP-62): > 100 µM (inactive) | GI50 (HT-29): > 100 µM (inactive) | GI50 (Hs-578T): > 100 µM (inactive) | GI50 (IGROV-1): > 100 µM (inactive) | GI50 (K562): > 100 µM (inactive) | GI50 (KM12): > 100 µM (inactive) | GI50 (LOX IMVI): 38.3 µM (inactive) | GI50 (M14): > 100 µM (inactive) | GI50 (MCF7): > 100 µM (inactive) | GI50 (MDA-MB-231): 43.6 µM (inactive) | GI50 (MDA-MB-435): > 100 µM (inactive) | GI50 (MDA-N): > 100 µM (inactive) | GI50 (MOLT-4): > 100 µM (inactive) | GI50 (Malme-3M): > 100 µM (inactive) | GI50 (NCI-H226): > 100 µM (inactive) | GI50 (NCI-H23): > 100 µM (inactive) | GI50 (NCI-H460): > 100 µM (inactive) | GI50 (NCI-H522): > 100 µM (inactive) | GI50 (NCI/ADR-RES): > 100 µM (inactive) | GI50 (OVCAR-3): > 100 µM (inactive) | GI50 (OVCAR-4): > 100 µM (inactive) | GI50 (OVCAR-5): > 100 µM (inactive) | GI50 (PC-3): > 100 µM (inactive) | GI50 (RPMI-8226): > 100 µM (inactive) | GI50 (RXF 393): > 100 µM (inactive) | GI50 (SF-268): > 100 µM (inactive) | GI50 (SF-295): > 100 µM (inactive) | GI50 (SF-539): > 100 µM (inactive) | GI50 (SK-MEL-28): > 100 µM (inactive) | GI50 (SK-MEL-2): > 100 µM (inactive) | GI50 (SK-MEL-5): > 100 µM (inactive) | GI50 (SK-OV-3): > 100 µM (inactive) | GI50 (SN12C): > 100 µM (inactive) | GI50 (SNB-19): > 100 µM (inactive) | GI50 (SNB-75): > 100 µM (inactive) | GI50 (SR): > 100 µM (inactive) | GI50 (SW-620): > 100 µM (inactive) | GI50 (T47D): > 100 µM (inactive) | GI50 (TK-10): > 100 µM (inactive) | GI50 (U-251): > 100 µM (inactive) | GI50 (UACC-257): > 100 µM (inactive) | GI50 (UACC-62): > 100 µM (inactive) | GI50 (UO-31): > 100 µM (inactive)

OC(c1cc(-c2ccc(C(F)(F)F)cc2)nc(C(F)(F)F)c1)C1CCCCN1 (configuration not stated) [ENPIROLINE PHOSPHATE]
GI50 (786-0): 1.89 µM (inactive) | GI50 (A498): 2.24 µM (inactive) | GI50 (CAKI-1): 5.53 µM (inactive) | GI50 (CCRF-CEM): 1.87 µM (inactive) | GI50 (COLO 205): 1.82 µM (inactive) | GI50 (HCC 2998): 1.69 µM (inactive) | GI50 (HCT-116): 2 µM (inactive) | GI50 (HCT-15): 2.18 µM | GI50 (HL-60): 2.01 µM (inactive) | GI50 (HT-29): 1.95 µM (inactive) | GI50 (IGROV-1): 1.73 µM (inactive) | GI50 (KM12): 1.87 µM (inactive) | GI50 (LOX IMVI): 1.73 µM (inactive) | GI50 (M14): 1.55 µM (inactive) | GI50 (MCF7): 1.8 µM (inactive) | GI50 (MDA-MB-435): 1.86 µM (inactive) | GI50 (MDA-N): 1.67 µM (inactive) | GI50 (MOLT-4): 1.86 µM (inactive) | GI50 (Malme-3M): 1.78 µM (inactive) | GI50 (NCI-H460): 2.08 µM (inactive) | GI50 (NCI-H522): 1.69 µM (inactive) | GI50 (NCI/ADR-RES): 2.62 µM (inactive) | GI50 (OVCAR-4): 1.87 µM (inactive) | GI50 (PC-3): 2.49 µM (inactive) | GI50 (RPMI-8226): 2.61 µM (inactive) | GI50 (RXF 393): 1.78 µM (inactive) | GI50 (SK-MEL-2): 2.02 µM (inactive) | GI50 (SK-OV-3): 2.3 µM (inactive) | GI50 (SR): 2.33 µM (inactive) | GI50 (SW-620): 1.85 µM (inactive) | GI50 (U-251): 1.88 µM (inactive) | GI50 (UACC-257): 2.03 µM (inactive) | GI50 (UACC-62): 1.78 µM (inactive)
